In patent US9102628B2, “Derivatives of pyrazole 3,5-carboxylates, their preparation and their application in therapeutics” (SANOFI, priority 2007, dated 2015):

Biological target: T1, human recombinant soluble enzyme BACE1 (Homo sapiens, UniProt P56817)
T1 construct: purchased R&D Systems 931-AS
Experiment: Test 1: Inhibition of soluble BACE1 (synthetic substrate S-10-R, HPLC/UV detection of cleavage product)
Format: biochemical
Conditions: BACE1 20 nM, substrate S-10-R 350 μM, 1 hour at 37° C., sodium acetate/acetic acid buffer pH 4.5, 10% DMSO
Text: Test 1: Inhibition of Soluble BACE1
This test uses soluble BACE1 and a synthetic substrate of BACE1.
The human recombinant soluble enzyme BACE1 is available from R&D Systems (reference 931-AS).
The synthetic peptide, made up of the amino acid sequence Ser-Glu-Val-Asn-Leu-Asp-Ala-Glu-Phe-Arg (S-10-R, available from NeoMPS, reference SP000122), is used as synthetic substrate of BACE1.
This synthetic substrate incorporates the cleavage site of BACE1 and fluorescent or chromogenic groups, so that the cleavage products can then be detected, either with UV after separation by HPLC, or by measurement of fluorescence or of optical density. In the present case, the cleavage product Asp-Ala-Glu-Phe-Arg, released during hydrolysis of S-10-R by BACE1, is quantified by UV detection [195 nm] after separation by HPLC with a gradient of acetonitrile from 2% to 100% [HP1100, Agilent; Column Atlantis dC18 (5 mm×2.1 mm; 3 μm)]. […]
The percentage inhibition of the activity of BACE1 by the compounds of the invention is determined as a function of the amount of cleavage product detected by HPLC: the smaller the amount of cleavage product detected, the greater the inhibitory activity of the compounds.
The values of IC50 are then calculated from the percentage inhibition previously determined, in relation to the concentration of the test compounds.

T1 sequence (P56817 46-457 limits assumed): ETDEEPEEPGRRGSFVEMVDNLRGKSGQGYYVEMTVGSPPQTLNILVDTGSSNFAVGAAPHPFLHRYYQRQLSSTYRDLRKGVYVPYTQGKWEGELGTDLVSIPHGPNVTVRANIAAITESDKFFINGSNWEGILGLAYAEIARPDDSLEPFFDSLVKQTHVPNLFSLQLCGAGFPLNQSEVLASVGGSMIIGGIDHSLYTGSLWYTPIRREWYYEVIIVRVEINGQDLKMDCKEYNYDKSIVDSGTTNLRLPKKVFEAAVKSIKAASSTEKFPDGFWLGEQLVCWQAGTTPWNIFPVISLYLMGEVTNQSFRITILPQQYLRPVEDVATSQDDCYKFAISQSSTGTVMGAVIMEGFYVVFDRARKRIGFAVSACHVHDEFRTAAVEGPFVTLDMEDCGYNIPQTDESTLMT

| Compound | IC50 [nM] |
| --- | --- |
| CCCC1CCCCN1C(=O)c1cc(C(=O)N[C@@H](Cc2cc(F)cc(F)c2)[C@H](O)CNC2(c3cccc(C(F)(F)F)c3)CC2)nn1CC (stereo partly drawn) [compound 53, N-{(1S,2R)-1-(3,5-difluorobenzyl)-2-hydroxy-3-({1-[3-(trifluoromethyl)phenyl]cyclopropyl}amino)propyl}-1-ethyl-5-[(2-propylpiperidin-1-yl)carbonyl]-1H-pyrazole-3-carboxamide] | 73 |
| CCN(Cc1ccccc1)NC(=O)c1cc(C(=O)N[C@@H](Cc2ccccc2)[C@H](O)CNCc2cccc(C(F)(F)F)c2)nn1CC [compound 69, 5-[(2-benzyl-2-ethylhydrazino)carbonyl]-N-[(1S,2R)-1-benzyl-2-hydroxy-3-{[3-(trifluoromethyl)benzyl]amino}propyl]-1-ethyl-1H-pyrazole-3-carboxamide] | 2000 |
